Reference: US7968107B2, “Oil-based suspension concentrates” (Bayer Cropscience AG, priority 2004, dated 2011)

Experiment: Penetrants at the level of the cuticle (desorption method, tracer mobility with and without additive)
Conditions: mobility of radiolabelled weak organic acid tracer in peach leaf cuticle; receptor buffer pH 7
Text: Additives which act as penetrants at the level of the cuticle may be referred to below as accelerator additives (cf. Schönherr and Baur, 1994, Pesticide Science 42, 185-208). The feature of accelerator additives is their ability to penetrate from the aqueous spray liquor and/or from the spray covering into the cuticle and thereby to increase the mobility of active substances in the cuticle. Other additives such as polyethylene glycol, in contrast, act only in the spray covering (via the liquid phase) or act only as wetting agents, such as sodium dodecyl sulphate, for example.
This test determines the influence of additives on the penetration properties of other substances at the level of the cuticle. The mobility of the test substance in the cuticle is measured with and without an additive, by way of a desorption method. The method is published in detail in the literature (Baur et al., 1997, Pesticide Science, 51, 131-152) and only the principles and any deviations are described below.
As a test substance with the function of a tracer a selection was made here of a radiolabelled weak organic acid. Plant material used comprised the enzymatically isolated leaf cuticles of the top face of peach leaves from outdoor trees. The cuticles were installed in specially manufactured stainless steel diffusion cells. The tracer, in a citrate buffer at a pH of 3 in the dissolved state, was applied to the side originally facing the inside of the leaf. This inner side readily takes up the small radioactive amount of the tracer in the undissociated acid form. Subsequently this inner side was covered and maintained at 100% atmospheric humidity. The morphological outer side of the leaf cuticle, normally exposed to the air, was then contacted with a buffer (pH 7), with the receptor solution, and the desorption was started. The penetrated acid form of the test substance is dissociated by the receptor and the desorption follows first-order kinetics. The desorption constant is proportional to the mobility of the tracer in the cuticle. […]

CH3—(CH2)10—O—(-EO—)6—(—BO—)2—CH3 [Ie-1]
Average effect (ratio of desorption slopes with additive to without additive): 78.4

CH3—(CH2)8—O—(-EO—)8—(—BO—)2—CH3 [Ie-2]
Average effect (ratio of desorption slopes with additive to without additive): 89.1

isotridecyl-(6) ethoxylate [Isotridecyl-(6) ethoxylate, open, reference compound]
Average effect (ratio of desorption slopes with additive to without additive): 42.3
